Data taken from ChEMBL document CHEMBL2150910, “Initial Optimization of a New Series of γ-Secretase Modulators Derived from a Triterpene Glycoside” (ACS Med Chem Lett, 2012).

Tests used:
[1] = Inhibition of gamma-secretase-mediated amyloid beta-40 production in diluted 2B7 conditioned media at 4 uM after 5 hrs
[2] = Inhibition of gamma-secretase-mediated amyloid beta-42 production in diluted 2B7 conditioned media after 5 hrs
[3] = Inhibition of gamma-secretase-mediated amyloid beta-40 production in diluted 2B7 conditioned media after 5 hrs
[4] = Inhibition of gamma-secretase-mediated amyloid beta-40 production in diluted 2B7 conditioned media at 20 uM after 5 hrs

SMILES	inhibition [1]	IC50 [2]	IC50 [3]	inhibition [4]
CC(=O)O[C@@H]([C@H]1C[C@@H](C)[C@H]2[C@H](O1)[C@H](O)[C@@]1(C)[C@@H]3CC[C@H]4C(C)(C)[C@@H](O[C@H]5CN(CCO)CCO5)CC[C@@]45C[C@@]35CC[C@]21C)C(C)(C)O	46%	0.24 µM		
C[C@@H]1C[C@H]([C@H](O)C(C)(C)O)O[C@H]2[C@H]1[C@@]1(C)CC[C@@]34C[C@@]35CC[C@H](O[C@@H]3OC[C@@H](O)[C@H](O)[C@H]3O)C(C)(C)[C@@H]5CC[C@H]4[C@]1(C)[C@H]2O		3.1 µM		
CC(=O)O[C@@H]([C@H]1C[C@@H](C)[C@H]2[C@H](O1)C(=O)[C@@]1(C)[C@@H]3CC[C@H]4C(C)(C)[C@@H](O[C@@H]5OC[C@@H](O)[C@H](O)[C@H]5O)CC[C@@]45C[C@@]35CC[C@]21C)C(C)(C)O		0.6 µM		
C[C@@H]1C[C@H]([C@H](O)C(C)(C)O)O[C@H]2[C@H]1[C@@]1(C)CC[C@@]34C[C@@]35CC[C@H](O)C(C)(C)[C@@H]5CC[C@H]4[C@]1(C)[C@H]2O		> 10 µM		
CC(=O)O[C@@H]([C@H]1C[C@@H](C)[C@H]2[C@H](O1)[C@H](O)[C@@]1(C)[C@@H]3CC[C@H]4C(C)(C)[C@@H](O[C@H]5CN(Cc6ccccc6)CCO5)CC[C@@]45C[C@@]35CC[C@]21C)C(C)(C)O	4%	2 µM		
CCCN1CCO[C@@H](O[C@H]2CC[C@]34C[C@]35CC[C@]3(C)[C@@H]6[C@H](O[C@@H]([C@H](OC(C)=O)C(C)(C)O)C[C@H]6C)[C@H](O)[C@@]3(C)[C@@H]5CC[C@H]4C2(C)C)C1		0.68 µM	15.9 µM	
CCN1CCO[C@@H](O[C@H]2CC[C@]34C[C@]35CC[C@]3(C)[C@@H]6[C@H](O[C@@H]([C@H](OC(C)=O)C(C)(C)O)C[C@H]6C)[C@H](O)[C@@]3(C)[C@@H]5CC[C@H]4C2(C)C)C1	42%	0.19 µM		
CC(=O)O[C@@H]([C@H]1C[C@@H](C)[C@H]2[C@H](O1)[C@H](O)[C@@]1(C)[C@@H]3CC[C@H]4C(C)(C)[C@@H](O[C@H]5CN(C(=O)c6ccno6)CCO5)CC[C@@]45C[C@@]35CC[C@]21C)C(C)(C)O		0.07 µM	4.8 µM	
CC(=O)O[C@@H]([C@H]1C[C@@H](C)[C@H]2[C@H](O1)[C@H](O)[C@@]1(C)[C@@H]3CC[C@H]4C(C)(C)[C@@H](O[C@H]5CN(C6CCC6)CCO5)CC[C@@]45C[C@@]35CC[C@]21C)C(C)(C)O	44%	0.35 µM		
CC(=O)O[C@@H]([C@H]1C[C@@H](C)[C@H]2[C@H](O1)[C@H](O)[C@@]1(C)[C@@H]3CC[C@H]4C(C)(C)[C@@H](O[C@H]5CN(C(=O)C6(C)COC6)CCO5)CC[C@@]45C[C@@]35CC[C@]21C)C(C)(C)O		0.08 µM	8 µM	
CC(=O)O[C@@H]([C@H]1C[C@@H](C)[C@H]2[C@H](O1)[C@H](O)[C@@]1(C)[C@@H]3CC[C@H]4C(C)(C)[C@@H](O[C@H]5CN(S(C)(=O)=O)CCO5)CC[C@@]45C[C@@]35CC[C@]21C)C(C)(C)O		0.08 µM		40%
CC(=O)O[C@@H]([C@H]1C[C@@H](C)[C@H]2[C@H](O1)[C@H](O)[C@@]1(C)[C@@H]3CC[C@H]4C(C)(C)[C@@H](O[C@H]5CN(CC(F)(F)F)CCO5)CC[C@@]45C[C@@]35CC[C@]21C)C(C)(C)O		1.19 µM		47%
CC(=O)O[C@@H]([C@H]1C[C@@H](C)[C@H]2[C@H](O1)[C@H](O)[C@@]1(C)[C@@H]3CC[C@H]4C(C)(C)[C@@H](O[C@H]5CN(CC(C)(C)O)CCO5)CC[C@@]45C[C@@]35CC[C@]21C)C(C)(C)O		0.23 µM	9.4 µM	
CC(=O)O[C@@H]([C@H]1C[C@@H](C)[C@H]2[C@H](O1)[C@H](O)[C@@]1(C)[C@@H]3CC[C@H]4C(C)(C)[C@@H](O[C@H]5CN(C(=O)N(C)C)CCO5)CC[C@@]45C[C@@]35CC[C@]21C)C(C)(C)O		0.06 µM		40%
CC(=O)O[C@@H]([C@H]1C[C@@H](C)[C@H]2[C@H](O1)[C@H](O)[C@@]1(C)[C@@H]3CC[C@H]4C(C)(C)[C@@H](O[C@H]5CN(C(=O)CC6CC6)CCO5)CC[C@@]45C[C@@]35CC[C@]21C)C(C)(C)O		0.13 µM		38%
CC(=O)O[C@@H]([C@H]1C[C@@H](C)[C@H]2[C@H](O1)[C@H](O)[C@@]1(C)[C@@H]3CC[C@H]4C(C)(C)[C@@H](O[C@H]5CN(CCC(=O)O)CCO5)CC[C@@]45C[C@@]35CC[C@]21C)C(C)(C)O		0.49 µM	18.8 µM	
CC(=O)O[C@@H]([C@H]1C[C@@H](C)[C@H]2[C@H](O1)[C@H](O)[C@@]1(C)[C@@H]3CC[C@H]4C(C)(C)[C@@H](O[C@@H](CO)OCCO)CC[C@@]45C[C@@]35CC[C@]21C)C(C)(C)O		0.1 µM		

SMILES	inhibition [1]	IC50 [2]	IC50 [3]	inhibition [4]
CC(=O)O[C@@H]([C@H]1C[C@@H](C)[C@H]2[C@H](O1)[C@H](O)[C@@]1(C)[C@@H]3CC[C@H]4C(C)(C)[C@@H](O[C@H]5CN(CC(=O)O)CCO5)CC[C@@]45C[C@@]35CC[C@]21C)C(C)(C)O		0.37 µM	14 µM	
COCCN1CCO[C@@H](O[C@H]2CC[C@]34C[C@]35CC[C@]3(C)[C@@H]6[C@H](O[C@@H]([C@H](OC(C)=O)C(C)(C)O)C[C@H]6C)[C@H](O)[C@@]3(C)[C@@H]5CC[C@H]4C2(C)C)C1		0.21 µM	7.6 µM	
CC(=O)O[C@@H]([C@H]1C[C@@H](C)[C@H]2[C@H](O1)[C@H](O)[C@@]1(C)[C@@H]3CC[C@H]4C(C)(C)[C@@H](O[C@H]5CN([C@H]6CCNC6=O)CCO5)CC[C@@]45C[C@@]35CC[C@]21C)C(C)(C)O		0.2 µM	7 µM	
CC(=O)O[C@@H]([C@H]1C[C@@H](C)[C@H]2[C@H](O1)[C@H](O)[C@@]1(C)[C@@H]3CC[C@H]4C(C)(C)[C@@H](O[C@H]5CN(Cc6ncc[nH]6)CCO5)CC[C@@]45C[C@@]35CC[C@]21C)C(C)(C)O	38%	0.12 µM		
CC(=O)O[C@@H]([C@H]1C[C@@H](C)[C@H]2[C@H](O1)[C@H](O)[C@@]1(C)[C@@H]3CC[C@H]4C(C)(C)[C@@H](O)CC[C@@]45C[C@@]35CC[C@]21C)C(C)(C)O		0.6 µM		
CC(=O)O[C@@H]([C@H]1C[C@@H](C)[C@H]2[C@H](O1)[C@H](O)[C@@]1(C)[C@@H]3CC[C@H]4C(C)(C)[C@@H](O[C@@H](CN(C)C)OCCN(C)C)CC[C@@]45C[C@@]35CC[C@]21C)C(C)(C)O		2.4 µM		
CC(=O)O[C@@H]([C@H]1C[C@@H](C)[C@H]2[C@H](O1)[C@H](O)[C@@]1(C)[C@@H]3CC[C@H]4C(C)(C)[C@@H](O[C@H]5CN(C6CC6)CCO5)CC[C@@]45C[C@@]35CC[C@]21C)C(C)(C)O		1 µM		35%
CC(=O)OC(C)(C)[C@H]1O[C@@]23O[C@@H]1C[C@@H](C)C2[C@@]1(C)CC[C@@]24C[C@@]25CC[C@H](O[C@@H]2OC[C@@H](O)[C@H](O)[C@H]2O)C(C)(C)[C@@H]5CC[C@H]4[C@]1(C)[C@H]3O (some centres undefined)		3 µM		
CC(=O)O[C@@H]([C@H]1C[C@@H](C)[C@H]2[C@H](O1)[C@H](O)[C@@]1(C)[C@@H]3CC[C@H]4C(C)(C)[C@@H](O[C@H]5CN(CC(N)=O)CCO5)CC[C@@]45C[C@@]35CC[C@]21C)C(C)(C)O		0.15 µM	7.8 µM	
CC(=O)O[C@@H]([C@H]1C[C@@H](C)[C@H]2[C@H](O1)[C@H](O)[C@@]1(C)[C@@H]3CC[C@H]4C(C)(C)[C@@H](O[C@H]5CN([C@@H]6CCNC6=O)CCO5)CC[C@@]45C[C@@]35CC[C@]21C)C(C)(C)O		0.12 µM		44%
CC(=O)O[C@@H]([C@H]1C[C@@H](C)[C@H]2[C@H](O1)[C@H](O)[C@@]1(C)[C@@H]3CC[C@H]4C(C)(C)[C@@H](O[C@H]5CN(CCN6CCOCC6)CCO5)CC[C@@]45C[C@@]35CC[C@]21C)C(C)(C)O	49%	0.16 µM		
CC(=O)O[C@@H]([C@H]1C[C@@H](C)[C@H]2[C@H](O1)[C@H](O)[C@@]1(C)[C@@H]3CC[C@H]4C(C)(C)[C@@H](O[C@H]5CN(C(=O)c6cn(C)cn6)CCO5)CC[C@@]45C[C@@]35CC[C@]21C)C(C)(C)O		0.13 µM		44%
CC(=O)O[C@@H]([C@H]1C[C@@H](C)[C@H]2[C@H](O1)[C@H](O)[C@@]1(C)[C@@H]3CC[C@H]4C(C)(C)[C@@H](O[C@H]5CN(C(C)=O)CCO5)CC[C@@]45C[C@@]35CC[C@]21C)C(C)(C)O		0.09 µM	13.4 µM	
CC(=O)O[C@@H]([C@H]1C[C@@H](C)[C@H]2[C@H](O1)[C@H](O)[C@@]1(C)[C@@H]3CC[C@H]4C(C)(C)[C@@H](O[C@H]5CN(C)CCO5)CC[C@@]45C[C@@]35CC[C@]21C)C(C)(C)O		0.13 µM	3.4 µM	
CC(=O)O[C@@H]([C@H]1C[C@@H](C)[C@H]2[C@H](O1)[C@H](O)[C@@]1(C)[C@@H]3CC[C@H]4C(C)(C)[C@@H](O[C@H]5CN(CC(=O)N(C)C)CCO5)CC[C@@]45C[C@@]35CC[C@]21C)C(C)(C)O		0.14 µM	9 µM	
CC(=O)O[C@@H]([C@H]1C[C@@H](C)[C@H]2[C@H](O1)[C@H](O)[C@@]1(C)[C@@H]3CC[C@H]4C(C)(C)[C@@H](O[C@H]5CN(C6CCOCC6)CCO5)CC[C@@]45C[C@@]35CC[C@]21C)C(C)(C)O	38%	0.18 µM		
